Laboratory results taken from BindingDB's records for doi:10.1016/j.bmcl.2016.03.041 (Eli Lilly, 2016).
pKi: −log10 of the molar value.

How the values were obtained:
[1] = target: Prostaglandin E2 receptor EP2 subtype (Homo sapiens, UniProt P43116); assay: Binding affinity to human EP2
[2] = target: T1, Prostaglandin E2 receptor EP3 subtype (Homo sapiens, UniProt P43115); assay: Binding affinity to human EP3
T1 sequence (P43115 whole entry): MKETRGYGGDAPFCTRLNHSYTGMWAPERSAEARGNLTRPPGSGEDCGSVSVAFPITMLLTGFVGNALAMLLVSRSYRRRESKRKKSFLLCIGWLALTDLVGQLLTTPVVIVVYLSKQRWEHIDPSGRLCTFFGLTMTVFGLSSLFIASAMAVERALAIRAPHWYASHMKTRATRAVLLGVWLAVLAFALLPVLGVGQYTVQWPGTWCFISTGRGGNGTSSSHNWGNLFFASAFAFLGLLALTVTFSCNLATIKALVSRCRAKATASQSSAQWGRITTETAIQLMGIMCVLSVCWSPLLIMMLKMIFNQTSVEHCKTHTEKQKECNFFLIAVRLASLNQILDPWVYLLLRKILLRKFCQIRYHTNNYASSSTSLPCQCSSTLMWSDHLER

[3] = target: T2, Prostaglandin E2 receptor EP1 subtype (Homo sapiens, UniProt P34995); assay: Binding affinity to human EP1
T2 sequence (P34995 whole entry): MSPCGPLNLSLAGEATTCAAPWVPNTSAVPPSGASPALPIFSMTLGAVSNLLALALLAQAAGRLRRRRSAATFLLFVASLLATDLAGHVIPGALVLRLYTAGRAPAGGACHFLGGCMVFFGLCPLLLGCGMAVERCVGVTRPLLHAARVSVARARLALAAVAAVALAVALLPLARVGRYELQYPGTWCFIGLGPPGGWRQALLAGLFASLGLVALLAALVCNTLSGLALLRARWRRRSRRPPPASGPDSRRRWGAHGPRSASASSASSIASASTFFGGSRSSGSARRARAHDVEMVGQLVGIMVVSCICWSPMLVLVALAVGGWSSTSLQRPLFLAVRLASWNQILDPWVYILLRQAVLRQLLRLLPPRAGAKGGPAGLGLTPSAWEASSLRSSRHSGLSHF

Chain of Prostaglandin E2 receptor EP2 subtype (P43116 whole entry): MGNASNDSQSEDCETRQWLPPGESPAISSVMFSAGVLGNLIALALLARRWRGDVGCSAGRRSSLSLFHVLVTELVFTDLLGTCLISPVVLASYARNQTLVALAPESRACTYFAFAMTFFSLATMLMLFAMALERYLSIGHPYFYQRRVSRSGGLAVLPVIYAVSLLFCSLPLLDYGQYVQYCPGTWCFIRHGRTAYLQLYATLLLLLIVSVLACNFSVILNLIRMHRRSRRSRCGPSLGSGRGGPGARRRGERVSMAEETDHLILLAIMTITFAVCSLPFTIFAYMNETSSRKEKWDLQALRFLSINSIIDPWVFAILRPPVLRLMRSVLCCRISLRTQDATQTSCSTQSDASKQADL

Cc1ccc(N2CCC(O)CC2)nc1C(=O)Nc1c(C)cc(C(=O)O)cc1C [US8933099, 1]
pKi [1]: < 4.72 | pKi [2]: < 4.85 | pKi [3]: < 4.76
